Laboratory results: US7273694B2, “Method and apparatus for reducing pathogens in a biological sample” (Safety Art, LLC, priority 2001, dated 2007)
Read-outs that look alike come from different tables or passages of the source.

Experiments:
[1] = system: fresh semen of domestic bulls (Bos taurus)
[2] = system: fresh semen of gaur (Bos gaur) bulls
[3] = system: cryopreserved bovine (Bos gaurus) sperm
[4] = system: Brucella abortus Strain 19; assay type: cell-based; settings: Strain 19 [vaccine strain]
Campylobacter fetus = assay: Antibiotic sensitivity of bacterial isolate; assay type: cell-based

| Compound | detrimental effects on sperm (motility, viability, acrosomal integrity) [1] | detrimental effects on sperm (motility, viability, acrosomal integrity) [2] | detrimental effects of increasing the concentration [3] | sensitivity of B. abortus to antibiotic [4] | sensitivity of C. fetus to antibiotic (Campylobacter fetus; laboratory isolate [4914]) | sensitivity of C. fetus to antibiotic (Campylobacter fetus) |
| --- | --- | --- | --- | --- | --- | --- |
| trypsin | no detrimental affects | no detrimental affects | no detrimental effects |  |  |  |
| CC[C@H]1OC(=O)C[C@@H](O)[C@H](C)[C@@H](O[C@@H]2O[C@H](C)[C@@H](O[C@H]3C[C@@](C)(O)[C@@H](O)[C@H](C)O3)[C@H](N(C)C)[C@H]2O)[C@@H](CC=O)C[C@@H](C)C(=O)/C=C/C(C)=C/[C@@H]1CO[C@@H]1O[C@H](C)[C@@H](O)[C@@H](OC)[C@H]1OC [tylosin] |  |  |  | intermediate | intermediate |  |
| CN[C@@H]1[C@H](O)[C@H](NC)[C@H]2O[C@@]3(O)C(=O)C[C@@H](C)O[C@H]3O[C@@H]2[C@H]1O [spectinomycin] |  |  |  | sensitive | intermediate |  |
| gentamicin |  |  |  | sensitive |  | sensitive |
| CCC[C@@H]1C[C@@H](C(=O)N[C@@H]([C@H]2O[C@H](SC)[C@H](O)[C@@H](O)[C@H]2O)[C@@H](C)O)N(C)C1 [lincomycin] |  |  |  | resistant | sensitive |  |
